Test system: D. immitis microfilariae
Assay: Dog heart worm microfilariae motility assay
Type: cell-based
Conditions: Dirofilaria immitis, read-out: EC50 (motility inhibition)

**Q.** With `O=C(NN1CCOc2ccccc21)c1cnc2c(-c3cc(F)cc(F)c3F)cccc2c1N1CCSCC1` [Example 5.10, N-(2,3-dihydro-1,4-benzoxazin-4-yl)-4-thiomorpholino-8-(2,3,5-trifluorophenyl)quinoline-3-carboxamide] as the molecule, how does the EC50 read?
**A.** < 0.1 µg/mL
